Source: the supplement of paper PMC11451515

Test system: NOMO1
Experiment: cell viability relative to DMSO control; higher = less cytotoxic
Conditions: 48 h
Method in brief: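 NOMO1, SEM and P12-Ichikawa leukemia cells spent at least four passages adapting to each medium before use. They were seeded at 500 cells/well (NOMO1, SEM) or 1000 cells/well (P12-Ichikawa) in 5 μl in 1536-well plates and pin-dosed with library compounds in DMSO at 11 threefold steps from 47 μM down to 0.79 nM. After 48 h at 37°C, CellTiter-Glo One luminescence was read. Viability is reported as a percentage of the DMSO wells on each plate, with cell-free wells as background.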

[1] = HPLM + 10% dialyzed FBS, 0.000781 µM
[2] = HPLM + 10% dialyzed FBS, 0.00234 µM
[3] = HPLM + 10% dialyzed FBS, 0.00702 µM
[4] = HPLM + 10% dialyzed FBS, 0.0211 µM
[5] = HPLM + 10% dialyzed FBS, 0.0632 µM
[6] = HPLM + 10% dialyzed FBS, 0.19 µM
[7] = HPLM + 10% dialyzed FBS, 0.569 µM
[8] = HPLM + 10% dialyzed FBS, 1.71 µM
[9] = HPLM + 10% dialyzed FBS, 5.12 µM
[10] = HPLM + 10% dialyzed FBS, 15.4 µM
[11] = HPLM + 10% dialyzed FBS, 46.1 µM
[12] = RPMI 5 mM glucose + 10% FBS, 0.000781 µM
[13] = RPMI 5 mM glucose + 10% FBS, 0.00234 µM
[14] = RPMI 5 mM glucose + 10% FBS, 0.00702 µM
[15] = RPMI 5 mM glucose + 10% FBS, 0.0211 µM
[16] = RPMI 5 mM glucose + 10% FBS, 0.0632 µM
[17] = RPMI 5 mM glucose + 10% FBS, 0.19 µM
[18] = RPMI 5 mM glucose + 10% FBS, 0.569 µM
[19] = RPMI 5 mM glucose + 10% FBS, 1.71 µM
[20] = RPMI 5 mM glucose + 10% FBS, 5.12 µM
[21] = RPMI 5 mM glucose + 10% FBS, 15.4 µM
[22] = RPMI 5 mM glucose + 10% FBS, 46.1 µM
[23] = RPMI 5 mM glucose + 10% dialyzed FBS, 0.000781 µM
[24] = RPMI 5 mM glucose + 10% dialyzed FBS, 0.00234 µM
[25] = RPMI 5 mM glucose + 10% dialyzed FBS, 0.00702 µM
[26] = RPMI 5 mM glucose + 10% dialyzed FBS, 0.0211 µM
[27] = RPMI 5 mM glucose + 10% dialyzed FBS, 0.0632 µM
[28] = RPMI 5 mM glucose + 10% dialyzed FBS, 0.19 µM
[29] = RPMI 5 mM glucose + 10% dialyzed FBS, 0.569 µM
[30] = RPMI 5 mM glucose + 10% dialyzed FBS, 1.71 µM
[31] = RPMI 5 mM glucose + 10% dialyzed FBS, 5.12 µM
[32] = RPMI 5 mM glucose + 10% dialyzed FBS, 15.4 µM
[33] = RPMI 5 mM glucose + 10% dialyzed FBS, 46.1 µM

Row | Compound | cell viability [1] [%] | cell viability [2] [%] | cell viability [3] [%] | cell viability [4] [%] | cell viability [5] [%] | cell viability [6] [%] | cell viability [7] [%] | cell viability [8] [%] | cell viability [9] [%] | cell viability [10] [%] | cell viability [11] [%] | cell viability [12] [%] | cell viability [13] [%] | cell viability [14] [%] | cell viability [15] [%] | cell viability [16] [%] | cell viability [17] [%] | cell viability [18] [%] | cell viability [19] [%] | cell viability [20] [%] | cell viability [21] [%] | cell viability [22] [%] | cell viability [23] [%] | cell viability [24] [%] | cell viability [25] [%] | cell viability [26] [%] | cell viability [27] [%] | cell viability [28] [%] | cell viability [29] [%] | cell viability [30] [%] | cell viability [31] [%] | cell viability [32] [%] | cell viability [33] [%]
1 | CC(C)(OCc1nn(Cc2ccccc2)c2ccccc12)C(=O)O | 101 | 99.8 | 108 | 116 | 120 | 84.4 | 108 | 114 | 88.8 | 85.2 | 99.1 | 84.4 | 89.3 | 98.8 | 96 | 93 | 92.2 | 99.9 | 94.2 | 89.8 | 96.8 | 83.4 | 96.2 | 91.5 | 93.3 | 108 | 91.6 | 106 | 102 | 83.6 | 111 | 95.4 | 97.4
2 | COc1ccccc1OCC(O)CN1CCN(CC(=O)Nc2c(C)cccc2C)CC1 (stereo unspecified) | 109 | 117 | 142 | 142 | 129 | 157 | 168 | 154 | 138 | 138 | 137 | 115 | 131 | 125 | 167 | 139 | 155 | 141 | 136 | 144 | 139 | 141 |  |  |  |  |  |  |  |  |  |  | 
3 | CCCCc1ccc(N[S+](=O)([O-])c2ccc(C)c(C(=O)N3CCN(c4cccc(C)c4C)CC3)c2)cc1 |  |  |  |  |  |  |  |  |  |  |  |  |  |  |  |  |  |  |  |  |  |  | 125 | 128 | 120 | 126 | 126 | 130 | 130 | 119 | 131 | 126 | 108
4 | Cc1nc(C(=O)NCC(=O)O)c(O)c2ccc(Oc3ccccc3)cc12 | 106 | 113 | 113 | 119 | 113 | 116 | 104 | 101 | 118 | 97.4 | 107 | 99.4 | 105 | 95.7 | 87.2 | 94.5 | 104 | 86.6 | 94.9 | 84.5 | 102 | 92.5 | 84.4 | 85.3 | 108 | 105 | 116 | 98.2 | 96.2 | 94.9 | 82.2 | 104 | 99.4
5 | CC(C)C[C@@H](C(=O)N[C@H](C(=O)OC1CCCC1)c1ccccc1)[C@H](O)C(=O)NO | 107 | 114 | 112 | 119 | 126 | 107 | 104 | 122 | 103 | 96.2 | 33.6 | 111 | 102 | 117 | 117 | 103 | 107 | 103 | 99.3 | 99 | 92.6 | 13 | 114 | 114 | 122 | 122 | 100 | 119 | 102 | 118 | 106 | 91.2 | 16
6 | CO[C@H]1C[C@H]2OC[C@@]2(OC(C)=O)[C@H]3[C@H](OC(=O)C4=CC=CC=C4)[C@]5(O)C[C@H](OC(=O)[C@H](O)[C@@H](NC(=O)OC(C)(C)C)C6=CC=CC=C6)/C(=C(/[C@@H](OC)C(=O)[C@]13C)C5(C)C)C | 75.9 | 46 | 28.5 | 25.8 | 19.6 | 19.9 | 19.3 | 18.8 | 27.7 | 19.9 | 7.15 | 68.2 | 79.6 | 86.1 | 14.6 | 10.7 | 13.3 | 11.9 | 12.6 | 14.9 | 11 | 4.22 | 64.3 | 81 | 82.7 | 19 | 14.9 | 13.8 | 13.7 | 13.7 | 17.5 | 16.8 | 7.39
7 | O=C(O)CCc1ccc(NCc2cccc(Oc3ccccc3)c2)cc1 | 97.4 | 105 | 134 | 132 | 119 | 96.9 | 114 | 111 | 122 | 117 | 141 | 85.8 | 99.2 | 108 | 102 | 119 | 111 | 105 | 102 | 109 | 103 | 123 | 82.6 | 103 | 95.1 | 92.5 | 105 | 105 | 103 | 98.6 | 111 | 119 | 104
8 | Cc1ccc(C)c(OCCCC(C)(C)C(=O)O)c1 | 92.3 | 84.2 | 93 | 95.6 | 89.9 | 102 | 105 | 88.4 | 98.9 | 104 | 98.3 | 78.1 | 93.7 | 101 | 94.1 | 85.5 | 105 | 99.4 | 88.7 | 92.1 | 96.5 | 92.9 | 76.5 | 92 | 88.9 | 94.1 | 96.1 | 103 | 101 | 81.3 | 88.3 | 106 | 96.2
